Measurements taken from paper PMC6017605, “In Silico Discovery of a Substituted 6-Methoxy-quinaldine with Leishmanicidal Activity in Leishmania infantum” (Molecules, 2018).

Target: T1, NDH-2 from S. aureus (SaNDH2, type 2 NADH:quinone oxidoreductase) (Staphylococcus aureus, UniProt Q2FZV7)
T1 construct: gene SAOUHSC_00878; recombinant NDH-2
Assay: steady-state NADH oxidation assay at […] nm with DMN as electron acceptor, […] enzyme
Format: biochemical

T1 sequence (Q2FZV7 whole entry): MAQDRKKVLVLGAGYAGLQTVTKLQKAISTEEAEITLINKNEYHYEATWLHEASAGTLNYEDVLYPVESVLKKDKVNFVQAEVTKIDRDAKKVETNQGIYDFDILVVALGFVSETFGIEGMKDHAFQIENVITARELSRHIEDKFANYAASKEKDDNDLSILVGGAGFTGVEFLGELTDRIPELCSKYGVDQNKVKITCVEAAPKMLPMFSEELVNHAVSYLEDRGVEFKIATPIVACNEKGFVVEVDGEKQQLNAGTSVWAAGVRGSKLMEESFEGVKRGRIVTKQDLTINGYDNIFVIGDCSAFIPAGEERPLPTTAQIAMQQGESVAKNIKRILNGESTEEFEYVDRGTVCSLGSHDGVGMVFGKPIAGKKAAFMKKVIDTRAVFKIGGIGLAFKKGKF

COc1ccc2nc(C)ccc2c1 [compound 15]
Ki: 8.9 ± 1 µM
